Reference: patent US20180360856A1, “ANTI-BACTERIAL COMPOUNDS” (Auspherix Limited, priority 2015, published 2018)

Tests used:
Gram negative bacteria = details: cited from earlier work
[1] = system: human hepatocyte cell line (HepG2); details: 24 h
Experimental: Cell counting kit-8 (Sigma, CCK-8) assays were performed to assess the effect of compounds on cell viability. The assay is based on the reduction of a water-soluble tetrazolium salt (WST-8) by cellular dehydrogenases to a formazan dye which can be detected spectroscopically. 96-well plates were seeded with the human hepatocyte cell line (HepG2) at approximately 8×10^3 cells per well in Eagle's Minimum Essential Medium (EMEM) with Earle's salts and sodium bicarbonate supplemented with 10% heat-inactivated foetal bovine serum 2 mM glutamine and 1% non-essential amino acids (NEAA). The following day serial dilutions of compounds (dissolved and diluted in DMSO) were added to the cells in duplicates. Control wells included an ‘untreated’ control where cells were grown in the presence of 1% DMSO and a ‘medium only’ control (plus 1% DMSO). After 24 hours CCK-8 reagent (10 μl) was added to each well and cell viability was assessed by measuring the absorbance at a wavelength of 450 nm after 2-3h hours. Only living cells can reduce the tetrazolium salts into coloured formazan products. Results were expressed as 50% growth inhibition (TD50) values compared to ‘untreated’ control.

[2] = system: S. aureus (Oxford strain); assay: Growth assay for S. aureus (MIC); format: cell-based; details: TSB, 37° C., 22-24 hours
Experimental: (§1) Stock solution of the test compounds (20 mg/ml) in dimethyl sulfoxide (DMSO) were serially diluted in DMSO and each diluted compound added in duplicate to a 96-well plate to a final DMSO concentration of 2% (v/v). An overnight culture of S. aureus (Oxford strain) grown in tryptic soy broth (TSB) was diluted to approximately 5×10^7 cfu/ml and 150 μl of this sample was added to each well of the 96-well plates. Control wells included an ‘untreated’ control with bacteria in TSB in the presence of 2% DMSO and a negative sample (containing 150p1 TSB growth media in the presence of 2% DMSO). Plates were incubated in a shaking incubator at 37° C. for 22-24 hours and bacterial growth assessed by absorbance at a wavelength of 595 nm. The minimum inhibitory concentration (MIC) was defined as the lowest concentration of compound that inhibited growth compared to the no-treatment control.

Klebsiella pneumoniae = assay: Growth assay variation, Klebsiella pneumoniae (MIC); format: cell-based; details: Luria broth, incubation without shaking
Experimental: as §1
(§2) Klebsiella pneumoniae, Acinetobacter baumannnii or E.coli (ATCC 25922): use of 1/100 overnight dilution to set up assay, medium used: Luria broth (LB); incubation without shaking.

E.coli (ATCC 25922) = assay: Growth assay variation, E. coli (MIC); format: cell-based; details: ATCC 25922, Luria broth, incubation without shaking
Experimental: as §1, §2

[3] = system: P.aeruginosa (ATCC 27853); assay: Growth assay variation, P. aeruginosa (MIC); format: cell-based; details: ATCC 27853, CaMHB, incubation without shaking
Experimental: as §1
P.aeruginosa (ATCC 27853): use of 1/100 overnight dilution to set up assay, medium used: Cation adjusted Mueller Hinton broth (CaMHB); incubation without shaking.

Compound | HepG2 cell TD50 [1] | other results
CC[P](CC)(CC)=[Au][S][C@@H]1O[C@H](COC(C)=O)[C@@H](OC(C)=O)[C@H](OC(C)=O)[C@H]1OC(C)=O [Auranofin] |  | activity against the majority of Gram negative bacteria (Gram negative bacteria): not been shown to have any significant activity
Cc1nnc([S][Au]=[P](C)(C)C)n1C [Compound 1] | 2 µg/mL | 
CNC(=O)C[S][Au]=[P](C)(C)C [Compound 2] | 6 µg/mL | 
CCOC(=O)CNC(=O)[C@H](C[S][Au]=[P](C)(C)C)NC(=O)CC[C@H](NC(C)=O)C(=O)OCC [Compound 3] | 32 µg/mL | 
C[P](C)(C)=[Au][S]c1ncco1 [Compound 4] | 4 µg/mL | 
COc1ccc([S][Au]=[P](C)(C)C)cc1OC [Compound 5] | 3 µg/mL | 
C[P](C)(C)=[Au][S]c1ccccc1C(=O)O [Compound 6] | 11.5 µg/mL | 
C[P](C)(C)=[Au][S]c1ncc[nH]1 [Compound 7] | 6 µg/mL | 
C[P](C)(C)=[Au][S]c1cccc(C(F)(F)F)c1 [Compound 8] | 3 µg/mL | 
C[P](C)(C)=[Au][S]c1ccccc1C(F)(F)F [Compound 9] | 3 µg/mL | 
COc1cccc([S][Au]=[P](C)(C)C)c1 [Compound 10] | 2 µg/mL | 
C[P](C)(C)=[Au][S]c1ccc(S(C)(=O)=O)cc1 [Compound 11] | 2 µg/mL | 
CC[P](C)(C)=[Au][S]c1ncco1 [Compound 12] | 5 µg/mL | 
C[P](C)(C)=[Au][S]c1ccc(C(F)(F)F)cn1 [Compound 13] | 2.5 µg/mL | 
C[P](C)(C)=[Au][S]c1cc(C(F)(F)F)ccn1 [Compound 14] | 3 µg/mL | 
C[P](C)(C)=[Au][S]c1nnn[nH]1 [Compound 15] | 23 µg/mL | 
C[P](C)(C)=[Au][S]c1ccc(C(N)=O)cn1 [Compound 16] | 17 µg/mL | 
COc1ccc([S][Au]=[P](C)(C)C)cc1 [Compound 17] | 3.5 µg/mL | 

Compound | HepG2 cell TD50 [1] | other results
C[P](C)(C)=[Au][S]c1ccc(F)cc1C(=O)O [Compound 18] | 18 µg/mL | 
CC(=O)Oc1ccc([S][Au]=[P](C)(C)C)cc1OC(C)=O [Compound 23] | 2 µg/mL | 
C[P](C)(C)=[Au][S]c1cccc(C(=O)O)c1 [Compound 25] | 22 µg/mL | 
C[P](C)(C)=[Au][S]c1ccc(C(=O)O)cc1 [Compound 26] | 13 µg/mL | 
C[P]1(=[Au][S]c2ccccc2C(=O)O)CCCCC1 [Compound 27] | 22 µg/mL | 
C[P]1(=[Au][S]c2ccccc2C(=O)O)CCCC1 [Compound 28] | 11 µg/mL | 
C[P]1(=[Au][S]c2ccccc2C(=O)O)CCOCC1 [Compound 29] | 35 µg/mL | 
C[P]1(=[Au][S]c2ccc(F)cc2C(=O)O)CCCCC1 [Compound 30] | 19 µg/mL | 
C[P]1(=[Au][S]c2nnn[nH]2)CCCCC1 [Compound 31] | 45 µg/mL | 
C[P]1(=[Au][S]c2nnn[nH]2)CCCC1 [Compound 32] | 11 µg/mL | 
Cn1nnnc1C[S][Au]=[P](C)(C)C [Compound 33] | 4 µg/mL | 
C[P](C)(C)=[Au][S]c1cccc(S(C)(=O)=O)c1 [Compound 34] | 1 µg/mL | 
C[P](C)(C)=[Au][S]C1CCC(F)(F)CC1 [Compound 35] | 4 µg/mL | 
CC[P](C)(C)=[Au][S]c1ccccc1C(=O)O [Compound 36] |  | S. aureus MIC [2]: <0/8
CP1CCS(=O)(=O)CC1.[Cl][Au] [Compound I-44, 4-Methyl-[1,4]sulfonylphosphinane gold(I) chloride] |  | S. aureus MIC [2]: 6.3 to 25 µg/mL; K. pneumoniae MIC (Klebsiella pneumoniae): 50 to 100 µg/mL; E. coli MIC (E.coli (ATCC 25922)): 25 to 100 µg/mL; P. aeruginosa MIC [3]: 6.3 to 50 µg/mL
Dimethyl[2-(methyl)oxazole]phosphine gold(I) chloride [Compound I-50] |  | S. aureus MIC [2]: 1.6 to 3.1 µg/mL; K. pneumoniae MIC (Klebsiella pneumoniae): 12.5 to 25 µg/mL; E. coli MIC (E.coli (ATCC 25922)): 6.3 to 12.5 µg/mL; P. aeruginosa MIC [3]: 12.5 to 25 µg/mL
Dimethyl[2-(methyl)thiazole]phosphine gold(I) chloride [Compound I-49] |  | S. aureus MIC [2]: ≤0.8 to 1.6 µg/mL; K. pneumoniae MIC (Klebsiella pneumoniae): 12.5 to 25 µg/mL; E. coli MIC (E.coli (ATCC 25922)): 6.3 to 12.5 µg/mL; P. aeruginosa MIC [3]: 25 µg/mL
